In patent US8049015B2 (Panmira Pharmaceuticals, LLC, priority 2008, dated 2011):

Target: T1, human DP2 receptor (Homo sapiens, UniProt Q9Y5Y4)
T1 construct: expressed in transfected cells
T1 sequence (Q9Y5Y4 1-395): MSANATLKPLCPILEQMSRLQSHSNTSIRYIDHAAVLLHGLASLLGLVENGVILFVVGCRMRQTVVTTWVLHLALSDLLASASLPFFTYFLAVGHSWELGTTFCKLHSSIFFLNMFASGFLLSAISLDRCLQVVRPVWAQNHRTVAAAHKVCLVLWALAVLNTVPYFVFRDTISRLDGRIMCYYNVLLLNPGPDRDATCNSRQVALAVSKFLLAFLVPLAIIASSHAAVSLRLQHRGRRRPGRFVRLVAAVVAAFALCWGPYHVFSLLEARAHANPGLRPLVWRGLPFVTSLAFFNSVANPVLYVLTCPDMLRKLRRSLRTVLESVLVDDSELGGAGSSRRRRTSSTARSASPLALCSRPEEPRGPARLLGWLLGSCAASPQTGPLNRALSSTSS
Experiment: DP2/CRTH2 binding assay (radioligand binding with [3H]PGD2)
Details: [3H]PGD2 binding, membranes of HEK293 cells expressing recombinant human DP2; read-out: hDP2
Method: The ability of a compound to bind to the human DP2 receptor is assessed via a radioligand binding assay using [^3H]PGD2. HEK293 cells stably expressing recombinant human DP2 are resuspended in 10 mM Hepes, 7.4 containing 1 mM DTT, lysed and centrifuged at 75,000×g to pellet the membranes. The membranes are resuspended in 10 mM Hepes, 7.4 containing 1 mM DTT and 10% glycerol to approximately 5 mg protein/ml. Membranes (2-10 μg protein/well) are incubated in 96-well plates with 1 nM [^3H]PGD2 and test compound in Assay Buffer (50 mM Hepes, 10 mM MnCl2, 1 mM EDTA, plus or minus 0.2% human serum albumin, pH 7.4) for 60 minutes at room temperature. The reactions are terminated by rapid filtration through Whatman GF/C glass fibre filter plates. The filter plates were pre-soaked in 0.33% polythylenimine for 30 minutes at room temperature then washed in Wash Buffer (50 mM Hepes, 0.5 M NaCl pH 7.4) prior to harvesting. After harvesting, the filter plates are washed 3 times with 1 ml cold Wash Buffer then dried. Scintillant is then added to the plates and the radioactivity retained on the filters is determined on a Packard TopCount (Perkin Elmer). Specific binding is determined as total radioactive binding minus non-specific binding in the presence of 10 μM PGD2. IC50s were determined using GraphPad prism analysis of drug titration curves.

| IC50 [nM] | Structure (SMILES) |
| --- | --- |
| < 300 | CCN(Cc1cc(C(=O)O)ccc1-c1cncc(CC(=O)O)c1)C(=O)OCc1ccccc1 [Compound 1, 3-[(N-Benzyloxycarbonyl-N-ethyl-amino)-methyl]-4-(5-carboxymethyl-pyridin-3-yl)-benzoic acid] |
| < 300 | CCN(Cc1cc(C(=O)O)ccc1-c1cncc(CC(=O)O)c1)C(=O)C1CC1 [Compound 2, 4-(5-Carboxymethyl-pyridin-3-yl)-3-[(N-cyclopropanecarbonyl-N-ethyl-amino)-methyl]-benzoic acid] |
| < 300 | N#Cc1ccc(-c2cncc(CC(=O)O)c2)c(CN(Cc2ccccc2)C(=O)C2CC2)c1 [Compound 3, (5-{2-[(N-Benzyl-N-cyclopropanecarbonyl-amino)-methyl]-4-cyano-phenyl}-pyridin-3-yl)-acetic acid] |
| < 300 | O=C(O)Cc1cncc(-c2ccc(-c3nn[nH]n3)cc2CN(Cc2ccccc2)C(=O)C2CC2)c1 [Compound 4, {5-[2-[(N-Benzyl-N-cyclopropanecarbonyl-amino)-methyl]-4-(2H-tetrazol-5-yl)-phenyl]-pyridin-3-yl}-acetic acid] |
| < 300 | O=C(O)Cc1cncc(-c2ccc(C(=O)NCc3ccccc3)cc2CN(Cc2ccccc2)C(=O)C2CC2)c1 [Compound 5, (5-{4-Benzylcarbamoyl-2-[(N-benzyl-N-cyclopropanecarbonyl-amino)-methyl]-phenyl}-pyridin-3-yl)-acetic acid] |
| 300 to 1000 | CNC(=O)c1ccc(-c2cncc(CC(=O)O)c2)c(CN(Cc2ccccc2)C(=O)C2CC2)c1 [Compound 6, (5-{2-[(N-Benzyl-N-cyclopropanecarbonyl-amino)-methyl]-4-methylcarbamoyl-phenyl}-pyridin-3-yl)-acetic acid] |
| 300 to 1000 | CC(C)(C)NC(=O)c1ccc(-c2cncc(CC(=O)O)c2)c(CN(Cc2ccccc2)C(=O)C2CC2)c1 [Compound 7, (5-{2-[(N-Benzyl-N-cyclopropanecarbonyl-amino)-methyl]-4-tert-butylcarbamoyl-phenyl}-pyridin-3-yl)-acetic acid] |
| < 300 | CCN(Cc1cc(C(F)(F)F)ccc1-c1cncc(CC(=O)O)c1)C(=O)C1CC1 [Compound 8, (5-{2-[(N-Cyclopropanecarbonyl-N-ethyl-amino)-methyl]-4-trifluoromethyl-phenyl}-pyridin-3-yl)-acetic acid] |
| 300 to 1000 | CCN(Cc1cc(C(F)(F)F)ccc1-c1cnc(Cl)c(CC(=O)O)c1)C(=O)C1CC1 [Compound 9, (2-Chloro-5-{2-[(N-cyclopropanecarbonyl-N-ethyl-amino)-methyl]-4-trifluoromethyl-phenyl}-pyridin-3-yl)-acetic acid] |
| < 300 | CCN(Cc1cc(C(F)(F)F)ccc1-c1cc(CC(=O)O)cnc1OC)C(=O)C1CC1 [Compound 10, (5-{2-[(N-Cyclopropanecarbonyl-N-ethyl-amino)-methyl]-4-trifluoromethyl-phenyl}-6-methoxy-pyridin-3-yl)-acetic acid] |
| 300 to 1000 | CCN(Cc1cc(C(F)(F)F)ccc1-c1cc(CC(=O)O)cnc1Cl)C(=O)C1CC1 [Compound 11, (6-Chloro-5-{2-[(N-cyclopropanecarbonyl-N-ethyl-amino)-methyl]-4-trifluoromethyl-phenyl}-pyridin-3-yl)-acetic acid] |
| < 300 | CCN(Cc1cc(C(F)(F)F)ccc1-c1cncc(CC(=O)O)c1)C(=O)OCc1ccccc1 [Compound 12, (5-{2-[(N-Benzyloxycarbonyl-N-ethyl-amino)-methyl]-4-trifluoromethyl-phenyl}-pyridin-3-yl)-acetic acid] |
| < 300 | CCN(Cc1cc(C(F)(F)F)ccc1-c1cncc(CC(=O)O)c1)C(=O)NCc1ccccc1 [Compound 14, {5-[2-(3-Benzyl-1-ethyl-ureidomethyl)-4-trifluoromethyl-phenyl]-pyridin-3-yl}-acetic acid] |
| < 300 | CCN(Cc1cc(C(F)(F)F)ccc1-c1cc(CC(=O)O)c[n+]([O-])c1)C(=O)OCc1ccccc1 [Compound 15, (5-{2-[(N-Benzyloxycarbonyl-N-ethyl-amino)-methyl]-4-trifluoromethyl-phenyl}-1-oxy-pyridin-3-yl)-acetic acid] |
| < 300 | CCN(Cc1cc(C(F)(F)F)ccc1-c1cncc(CC(=O)O)c1)C(=O)Cc1ccccc1 [Compound 16, (5-{2-[(N-Ethyl-N-phenylacetyl-amino)-methyl]-4-trifluoromethyl-phenyl}-pyridin-3-yl)-acetic acid] |
| < 300 | O=C(O)Cc1cncc(-c2ccc(C(F)(F)F)cc2CN(Cc2ccccc2)C(=O)C2CC2)c1 [Compound 17, (5-{2-[(N-Benzyl-N-cyclopropanecarbonyl-amino)-methyl]-4-trifluoromethyl-phenyl}-pyridin-3-yl)-acetic acid] |
| < 300 | CC(=O)N(Cc1ccccc1)Cc1cc(C(F)(F)F)ccc1-c1cncc(CC(=O)O)c1 [Compound 18, (5-{2-[(N-Acetyl-N-benzyl-amino)-methyl]-4-trifluoromethyl-phenyl}-pyridin-3-yl)-acetic acid] |
| < 300 | CC(=O)N(Cc1ccccc1)Cc1cc(C(F)(F)F)ccc1-c1cc(CC(=O)O)cnc1Cl [Compound 19, (5-{2-[(N-Acetyl-N-benzyl-amino)-methyl]-4-trifluoromethyl-phenyl}-6-chloro-pyridin-3-yl)-acetic acid] |
| < 300 | CC(=O)N(Cc1ccccc1)Cc1cc(C(F)(F)F)ccc1-c1cnc(Cl)c(CC(=O)O)c1 [Compound 20, (5-{2-[(N-Acetyl-N-benzyl-amino)-methyl]-4-trifluoromethyl-phenyl}-2-chloro-pyridin-3-yl)-acetic acid] |
| < 300 | CCN(Cc1cc(SC)ccc1-c1cncc(CC(=O)O)c1)C(=O)C1CC1 [Compound 21, (5-{2-[(N-Cyclopropanecarbonyl-N-ethyl-amino)-methyl]-4-methylsulfanyl-phenyl}-pyridin-3-yl)-acetic acid] |
| < 300 | CCN(Cc1cc(SC(C)(C)C)ccc1-c1cncc(CC(=O)O)c1)C(=O)C1CC1 [Compound 22, (5-{4-tert-Butylsulfanyl-2-[(N-cyclopropanecarbonyl-N-ethyl-amino)-methyl]-phenyl}-pyridin-3-yl)-acetic acid] |
| 300 to 1000 | CCN(Cc1cc(F)ccc1-c1cncc(CC(=O)O)c1)C(=O)C1CC1 [Compound 23, (5-{2-[(N-Cyclopropanecarbonyl-N-ethyl-amino)-methyl]-4-fluoro-phenyl}-pyridin-3-yl)-acetic acid] |
| < 300 | CCN(Cc1cc(S)ccc1-c1cncc(CC(=O)O)c1)C(=O)C1CC1 [Compound 24, (5-{2-[(N-Cyclopropanecarbonyl-N-ethyl-amino)-methyl]-4-mercapto-phenyl}-pyridin-3-yl)-acetic acid] |
| < 300 | CCN(Cc1cc(C(F)(F)F)ccc1-c1cncc(CC(=O)O)c1)C(=O)CCc1ccccc1 [Compound 25, [5-(2-{[N-Ethyl-N-(3-phenyl-propionyl)-amino]-methyl}-4-trifluoromethyl-phenyl)-pyridin-3-yl]-acetic acid] |
| < 300 | CC(=O)N(Cc1ccccc1)Cc1cc(C(F)(F)F)ccc1-c1cc(CC(=O)O)cnc1O [Compound 26, (5-{2-[(N-Acetyl-N-benzyl-amino)-methyl]-4-trifluoromethyl-phenyl}-6-hydroxy-pyridin-3-yl)-acetic acid] |
| < 300 | CCN(Cc1cc(C(F)(F)F)ccc1-c1cc(CC(=O)O)cnc1OC)C(=O)NCc1ccccc1 [Compound 27, {5-[2-(3-Benzyl-1-ethyl-ureidomethyl)-4-trifluoromethyl-phenyl]-6-methoxy-pyridin-3-yl}-acetic acid] |
| < 300 | COc1ncc(CC(=O)O)cc1-c1ccc(C(F)(F)F)cc1CN(Cc1ccccc1)C(C)=O [Compound 28, (5-{2-[(N-Acetyl-N-benzyl-amino)-methyl]-4-trifluoromethyl-phenyl}-6-methoxy-pyridin-3-yl)-acetic acid] |
| 300 to 1000 | CCN(Cc1cc(C(F)(F)F)ccc1-c1cncc(CC(=O)O)c1)C(=O)c1cnccn1 [Compound 29, [5-(2-{[N-Ethyl-N-(pyrazine-2-carbonyl)-amino]-methyl}-4-trifluoromethyl-phenyl)-pyridin-3-yl]-acetic acid] |

| Structure (SMILES) | IC50 [nM] |
| --- | --- |
| CCN(Cc1cc(C(F)(F)F)ccc1-c1cncc(CC(=O)O)c1)C(=O)OC(C)(C)C [Compound 13, (5-{2-[(N-tert-Butoxycarbonyl-N-ethyl-amino)-methyl]-4-trifluoromethyl-phenyl}-pyridin-3-yl)-acetic acid] | < 300 |
| CCN(Cc1cc(C(F)(F)F)ccc1-c1cncc(CC(=O)O)c1)C(=O)c1cc(OC)nc(OC)n1 [Compound 30] | > 1000 |
